Values joined by “and” are separate entries in the source; they are usually repeats but may differ in a detail not shown here. Equal entries are not always repeated. Structures can show the parent of a compound that is named as a salt.

One assay concerns mice. Conditions: cited from earlier work; for analgesic activity upon intracerebroventricular administration: mice, intracerebroventricularly, Buscher et al., Nature, 261, 423 (1976); for analgesic activity when administered parenterally: parenteral administration.
Another assay relates to mouse (Cox Standard). Briefly: mouse hot plate test (mouse jump). The class given is in vivo. Conditions: subcutaneous injection, 15 minutes after administration, hot plate 52° C., dose producing analgesia in 50% of mice. Here is the method: In the mouse hot plate test, an upright acrylic cylinder comprising, as its base, a hot plate surface which is maintained at 52° C. is used. A mouse (Cox Standard) is given, by subcutaneous injection, a predetermined amount of test compound dissolved or suspended in a suitable carrier, and, 15 minutes after administration of the test compound, the mouse is placed on the hot plate surface. The latency in seconds until the mouse jumps from the hot plate surface is measured. […] This must occur in a dose range which produces no motor incoordination or incapacitation. The following Table records ED50 results obtained from this test. By the term "ED50 " is meant that dose which produces analgesia in 50% of the mice tested. Analgesia is defined as a response latency in the presence of test compound that is equal to or greater than the control response latency plus two standard deviations. The percent analgesia data are converted to probits, and the ED50 is calculated by regression analysis of the dose-response data. Each dose response curve must have at least four points, and each point is determined using data from a minimum of ten treated mice and ten control mice.
In general terms: Hot-plate and tail-flick tests time the reaction to a heat stimulus.

A further assay deals with mouse vas deferens. The experiment in a line: mouse vas deferens test, electrically evoked twitch. The class given is cell-based. The note with it: concentration causing depression of 50% of the electrically evoked contraction; field stimulation 0.15 Hz, 1 msec., 40 V; 37° C. Here is the method:
In the mouse vas deferens test, single mouse vas deferens from mature mice (Cox, 30-40 g.) are suspended in 3 ml. of modified Kreb's solution aerated with 95% O2 -5% CO2 and maintained at 37° C. The twitch induced by field stimulation (0.15 Hz, 1 msec., 40 V) is recorded on a polygraph via an isometric transducer. The test compound is added to the bath in 20 to 30 μl. aliquots. A dose-response curve is constructed by cumulative addition of appropriate amounts of the compound to the bath. Comparison of relative agonist potency is made on the basis of IC50 values (concentration causing depression of 50% of the electrically evoked contraction).

On to “H-Tyr-Gly-Gly-Phe-Leu-OH. [leucine enkephalin]”, for which, in the assay on mice, the “analgesic activity upon intracerebroventricular administration” value is “exhibit analgesic activity” and the “analgesic activity when administered parenterally” value is “practically devoid of any useful analgesic activity”.
Consider `CC(=O)O.CC(=O)O.C[C@@H](NC(=O)[C@@H](N)Cc1ccc(O)cc1)C(=O)NCC(=O)N[C@@H](Cc1ccccc1)C(=O)NCCCCNC(=O)[C@H](Cc1ccccc1)NC(=O)CNC(=O)[C@@H](C)NC(=O)[C@@H](N)Cc1ccc(O)cc1` [Example 1, N,N'-1,4-Butanediylbis-[L-tyrosyl-D-alanyl-glycyl-L-phenylalanylamide], Diacetate Salt], for which the “Mouse Jump ED50” value in the assay with mouse (Cox Standard) amounted to 0.370 mg/kg. This molecule also gave an IC50 in the assay on mouse vas deferens of 2.83 nM.
For `C[C@@H](NC(=O)[C@@H](N)Cc1ccc(O)cc1)C(=O)NCC(=O)N[C@@H](Cc1ccccc1)C(=O)NCCCCCCCCNC(=O)[C@H](Cc1ccccc1)NC(=O)CNC(=O)[C@@H](C)NC(=O)[C@@H](N)Cc1ccc(O)cc1` [Example 2, N,N'-1,8-Octanediylbis-[L-tyrosyl-D-alanyl-glycyl-L-phenylalanylamide], Diacetate Salt] the same measures were over 30 mg/kg and 67 nM.
For `C[C@@H](NC(=O)[C@@H](N)Cc1ccc(O)cc1)C(=O)NCC(=O)N[C@@H](Cc1ccccc1)C(N)=O` [H--LTyr--DAla--Gly--LPhe--NH2] the same measures were 0.85 mg/kg and 189 nM.
In the case of “N,N'-1,4-Butanediylbis-[L-tyrosyl-D-alanyl-glycyl-L-phenylalanyl-L-(N^α -methyl)methioninamide], Diformate Salt [Example 4]”, in the assay with mouse (Cox Standard) (Diformate Salt), the “Mouse Jump ED50” value was 5.5 mg/kg and 9.85 mg/kg.
For `CSCC[C@@H](C(N)=O)N(C)C(=O)[C@H](Cc1ccccc1)NC(=O)CNC(=O)[C@@H](C)NC(=O)[C@@H](N)Cc1ccc(O)cc1` [H--LTyr--DAla--Gly--LPhe--L(N--Me)Met--NH2], the “Mouse Jump ED50” value with mouse (Cox Standard) was found to be 0.363 mg/kg. The molecule further yielded a 50% inhibitory concentration (IC50) in the assay on mouse vas deferens of 12.2 nM.
With “H-Tyr-Gly-Gly-Phe-Met-OH [methionine enkephalin]”, in the assay on mice, the “analgesic activity upon intracerebroventricular administration” value is on record as “exhibit analgesic activity” and the “analgesic activity when administered parenterally” value is reported as “practically devoid of any useful analgesic activity”.

A word on the IC50: it is the midpoint of a concentration-inhibition curve. Read a high IC50 as weaker potency in that assay.

The values above are taken from patent US4309343A, “Pharmacologically active peptides” (Eli Lilly and Company, priority 1980, dated 1982).
